14 compounds from ChEMBL document CHEMBL1201862, “PubChem BioAssay data set” (2004) can be followed below.

Each structure is given as a SMILES string.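 Following 48 hours of exposure in 96-well plates, responses at five concentrations were used to interpolate endpoints linearly. Here, GI50 denotes the concentration required for 50% inhibition of growth.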 Activity calls are given as the source filed them. Cut-off read from the data, not from the text of the source: active = GI50 up to about 1.1 µM and inactive = higher. A value given as a limit tells only on which side of the number the result lay.

What all share (experiment): NCI tumour cell line growth inhibition, 48 h
In test [1] the test system is MOLT-4.
Test [2] concerns OVCAR-4.
Test [3] relates to KM12.
Test [4] has as its system OVCAR-5.
Test [5] deals with HOP-62.
Test [6] has as its system HCT-116.
Test [7] concerns UO-31.
In test [8] the test system is A549.
The subject of test [9] is SN12C.
Test [10] relates to HL-60.
Test [11] concerns A498.
The subject of test [12] is IGROV-1.
Test [13] relates to SF-295.
Test [14] concerns SF-268.
Test [15] concerns HCC 2998.
Test [16] concerns HOP-92.

Turning to `CN(C)CC/C(=N\Nc1c(Cl)cccc1Cl)c1ccccc1`, the GI50 in test [1] was 23.4 µM (inactive); in [2], 20.3 µM (inactive); in test [3], 17 µM (inactive); in test [4], 19.2 µM (inactive); in test [5], 29.4 µM (inactive); in test [6], 15.3 µM (inactive). For the same compound, the GI50 in [7] was 7.08 µM (inactive); in test [8], 29.3 µM (inactive); in test [9] it was 28.7 µM (inactive); in test [10], 16.3 µM (inactive); in test [11] it was 16.6 µM (inactive); in [12], 26.6 µM (inactive). Further, the GI50 in test [13] is 16 µM (inactive).
As to `N#CC1C(=O)NC(=O)C1=O` (configuration not stated), the GI50 in [1], in test [2], in test [3], in [14], in [4] and in test [5] was > 100 µM (inactive) each time. Also, the GI50 in [6], in test [7], in test [9], in test [15], in test [11] and in [12] was > 100 µM (inactive) each time. Also, the GI50 in test [13] and in [16] was > 100 µM (inactive) each time.
`O=C(O)CC1CC=C[C@H]2c3cc4c(cc3C(=O)NC12)OCO4` (some centres not stated): the GI50 in [1], in [3], in test [14], in test [5], in [6] and in test [7] was > 75 µM (inactive) throughout. Further, the GI50 in test [8], in [9], in [10], in [15], in test [12] and in [13] was > 75 µM (inactive) throughout.
As to `CCCN(CCC)C(=O)c1nc(N)nc(-c2ccc(OC)cc2)c1-c1ccc(OC)cc1`, the GI50 in [1] is 11.2 µM (inactive); in test [2] it was 47.9 µM (inactive); in test [3] it was > 100 µM (inactive); in test [14], > 100 µM (inactive); in [4], > 100 µM (inactive); in test [6], > 100 µM (inactive). The GI50 in test [7] was > 100 µM (inactive); in test [8], > 100 µM (inactive); in [9] it was > 100 µM (inactive); in [10], 73.8 µM (inactive); in test [11] it was > 100 µM (inactive); in test [12], > 100 µM (inactive). Further, the GI50 in test [13] was > 100 µM (inactive); in [16], 82.6 µM (inactive).
For the compound `O=C1[C@H]2ON(c3ccccc3)C(c3ccco3)[C@H]2C(=O)N1c1ccc(Cc2ccc(N3C(=O)[C@@H]4ON(c5ccccc5)C(c5ccco5)[C@@H]4C3=O)cc2)cc1` (some centres not stated), the GI50 in [1], in test [2], in [3], in test [14], in test [4] and in test [5] was > 100 µM (inactive) each time. Also, the GI50 in test [7], in test [8], in [9], in [10], in [15] and in test [11] was > 100 µM (inactive) in each case. The GI50 in test [12], in [13] and in test [16] was > 100 µM (inactive) throughout.
Consider `Cc1cc(N(CCC#N)CCC#N)ccc1/N=N/c1ccc(C(=O)O)cc1`, for which the GI50 in test [1] is > 100 µM (inactive); in test [2], > 100 µM (inactive); in test [3], > 100 µM (inactive); in test [14] it was > 100 µM (inactive); in test [4], > 100 µM (inactive); in test [5] it was 61 µM (inactive). The GI50 was 77.6 µM (inactive) in test [7]; > 100 µM (inactive) in [8]; > 100 µM (inactive) in [9]; > 100 µM (inactive) in [15]; > 100 µM (inactive) in test [11]; > 100 µM (inactive) in test [12]. Further, the GI50 in test [13] is > 100 µM (inactive).
On to `CC(=O)OCCc1cccnc1/C=N/O`, for which the GI50 in test [1], in [2], in [3], in [14], in test [4] and in test [5] was > 100 µM (inactive) throughout. Moreover, the GI50 in test [6], in [7], in test [8], in test [9], in [10] and in test [15] was > 100 µM (inactive) each time. Further, the GI50 in test [12], in test [13] and in test [16] was > 100 µM (inactive) in each case.
For the compound `COc1cc(-c2cc(-c3cc([N+](=O)[O-])c(/C=N/NC(=O)c4ccncc4)o3)ccc2OC)ccc1C`, the GI50 in test [2], in [14], in test [4], in [5], in test [8] and in test [9] was > 100 µM (inactive) each time. Further, the GI50 in [10] is > 10 µM (inactive); in [15], > 100 µM (inactive); in test [11], > 100 µM (inactive); in test [12], > 100 µM (inactive); in test [13], > 100 µM (inactive); in test [16], > 100 µM (inactive).
Turning to `CC(=O)Nc1ccc(S(=O)(=O)N/N=C/c2cc(I)cc([N+](=O)[O-])c2O)cc1`, the GI50 in [1] was 32.7 µM (inactive); in test [2], 30.3 µM (inactive); in [3] it was > 100 µM (inactive); in [14] it was 32.9 µM (inactive); in [4], > 100 µM (inactive); in test [7] it was 33.3 µM (inactive). The GI50 in test [8] was > 100 µM (inactive); in test [9], 64.3 µM (inactive); in [10] it was 31.5 µM (inactive); in test [15] it was > 100 µM (inactive); in test [11], > 100 µM (inactive); in test [12] it was > 100 µM (inactive). The GI50 in test [13] was > 100 µM (inactive).
For the compound `c1ccc(P(=C2c3ccccc3-c3ccccc32)(c2ccccc2)c2ccccc2)cc1`, the GI50 in test [2] was 6.1 µM (inactive); in test [3], 2.24 µM (inactive); in [14], 7.19 µM (inactive); in [4], 4.32 µM (inactive); in test [5], 1.69 µM (inactive); in [7], 8.87 µM (inactive). The GI50 in [8] is 7 µM (inactive); in [9], 3.15 µM (inactive); in test [10] it was 1.8 µM (inactive); in [15], 3.63 µM (inactive); in [12], 6.7 µM (inactive); in test [13], 2.94 µM (inactive). Also, the GI50 in test [16] was 2.75 µM (inactive).
For `CCOC(=O)C(=O)Nc1nc2c(s1)C(=O)c1ccccc1C2=O`, the GI50 in [1] was 2.32 µM (inactive); in test [2], 17.1 µM (inactive); in test [3], 16 µM (inactive); in [14], 14.1 µM (inactive); in [4] it was 27.7 µM (inactive); in test [5] it was 18.9 µM (inactive). The GI50 in test [6] was 13.3 µM (inactive); in [7], 14.8 µM (inactive); in test [8] it was 17.8 µM (inactive); in [9], 16.5 µM (inactive); in test [15], 17.7 µM (inactive); in test [11] it was 16.1 µM (inactive). Moreover, the GI50 in test [12] is 19.1 µM (inactive); in test [16] it was 12.2 µM (inactive).
Take `COc1cc(O)c(C(=O)/C=C/c2ccc(OC)c(OCc3ccccc3)c2)c(OC)c1`: the GI50 is 5.46 µM (inactive) in test [1]; > 100 µM (inactive) in [2]; 31 µM (inactive) in test [3]; > 100 µM (inactive) in test [4]; > 100 µM (inactive) in [5]; 4.55 µM (inactive) in test [6]. Also, the GI50 in [7] was > 100 µM (inactive); in test [8] it was 64.6 µM (inactive); in [9] it was > 100 µM (inactive); in test [10] it was 8.67 µM (inactive); in test [15] it was 46.9 µM (inactive); in test [12], > 100 µM (inactive). Further, the results for the GI50 in test [13] and in test [16] were 0.301 µM (active) and > 100 µM (inactive), respectively.
As to `CC1=CC(=O)C(=O)C2=C1OC1(C2)C(C)CCC2C3(C)CCC(O)C(C)(C)C3CCC21C` (configuration not stated), the GI50 is 17.1 µM (inactive) in test [1]; 17.2 µM (inactive) in test [2]; 15.7 µM (inactive) in test [3]; 26.4 µM (inactive) in test [14]; 18.2 µM (inactive) in [4]; 19.2 µM (inactive) in test [5]. Also, the GI50 is 15.3 µM (inactive) in test [6]; 18.4 µM (inactive) in [7]; 33.3 µM (inactive) in test [8]; > 100 µM (inactive) in test [9]; 2.22 µM (inactive) in test [10]; 19 µM (inactive) in [15]. For the same compound, the results for the GI50 in test [12], in [13] and in test [16] were 17.6 µM (inactive), 15.7 µM (inactive) and 17.3 µM (inactive), respectively.
Take `O=c1cc(-c2ccc(O)cc2)oc2cc(O)cc(O)c12` [APIGENIN]: the GI50 was 23 µM (inactive) in test [1]; 32.2 µM (inactive) in test [2]; 23.1 µM (inactive) in [3]; 27.5 µM (inactive) in test [14]; 30.5 µM (inactive) in test [4]; 43.6 µM (inactive) in test [5]. Besides, the GI50 in test [6] is 24.2 µM (inactive); in test [7], 23.9 µM (inactive); in test [8] it was 42.9 µM (inactive); in test [9], 30.4 µM (inactive); in [10], 29.7 µM (inactive); in test [15] it was 23.9 µM (inactive). In addition, the results for the GI50 in test [12], in [13] and in test [16] were 28.6 µM (inactive), 27.2 µM (inactive) and 20.2 µM (inactive), respectively.
